Patent US8846666B2, “Oxathiazine derivatives which are substituted with benzyl or heteromethylene groups, method for producing them, their use as medicine and drug containing said derivatives and the use thereof” (Sanofi, priority 2011, dated 2014)

These compounds were tested against human 11β-HSD1 microsome fraction (Homo sapiens, UniProt P28845) (assay: Enzymatic 11Beta-HSD1 test (SPA-based detection)). Conditions: [1,2-3H]-cortisone, NADPH, 37° C. for 1 hour.
Assay type: biochemical
Description: Enzymatic 11Beta-HSD1 Test:
To measure the activity of the compounds, an SPA-based detection method (Solly et al. 2005) was employed. First of all, 20 μl of the human 11β-HSD1 microsome fraction (0.2 μg of protein), prepared in 50 mM HEPES, 0.1% BSA (w/v), were applied to a plate with 384 wells. The test compounds (0.09 μl) were applied to the assay plate in 100% DMSO. The reaction was started by addition of 20 μl of [1,2-^3H]-cortisone (0.1 μCi/[…]) in assay buffer comprising 25 mM HEPES, 100 mM KCl, 5 mM NaCl, 2 mM MgCl2 and 0.25 mM NADPH. The plate was agitated at 37° C. for 1 hour. At the same time, a stop solution comprising 20 mg/ml SPA-PVT beads, 1.6 mg/ml monoclonal cortisol antibody and 0.01 mM SSR110887 (inhibitor from the Biovitrium patent) in 50 mM HEPES, 1 M NaCl and 1 M KCl was stirred at room temperature. To stop the reaction, 25 μl of the stop solution were added to each well. The plate was agitated gently at room temperature for 1 further hour and then centrifuged at 500 gav for 1 min, in order that the SPA beads could settle out. The plate was then read in a Wallac-1450-Microbeta unit with a standard SPA program (counting time 1 min/well). The comparative compound was glycyrrhetinic acid.
Protein and radioactive substrate were dispensed with a Biomek FX unit (Beckman Coulter) for handling liquids. The test compounds were added with a Cybi-Well equipped with a 90 nl pin tool (CyBio).
Lit.: Solly S, Mundt S S, Zokian H J, Juy-Fang Ding G, Hermanowski-Vosatka A, Strulovici B and Zheng W. High-throughput screening of 11β-Hydroxysteroid dehydrogenase type 1 in scintillation proximity format. Assay Drug Dev Technol 2005; 3:377-384.

human 11β-HSD1 microsome fraction, sequence (P28845 whole entry): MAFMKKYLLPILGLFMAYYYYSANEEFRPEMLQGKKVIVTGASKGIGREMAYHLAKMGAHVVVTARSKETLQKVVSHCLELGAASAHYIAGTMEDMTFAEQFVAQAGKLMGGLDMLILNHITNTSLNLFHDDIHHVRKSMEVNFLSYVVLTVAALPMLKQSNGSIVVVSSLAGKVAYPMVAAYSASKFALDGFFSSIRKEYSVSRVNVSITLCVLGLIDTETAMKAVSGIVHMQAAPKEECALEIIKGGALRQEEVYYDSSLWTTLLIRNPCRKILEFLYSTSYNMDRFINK

Row | IC50 [nM] | SMILES
1 | 5 | CC1(C)OC(N[C@@H](CCO)c2ccccc2)=NS(=O)(=O)C1Cc1ccc(Cl)cc1 (stereo partly drawn) [Example 1, (S)-3-[5-(4-Chlorobenzyl)-6,6-dimethyl-4,4-dioxo-5,6-dihydro-4H-4lambda6-[1,4,3]oxathiazin-2-ylamino]-3-phenyl-propan-1-ol]
2 | 7 | CC1(C)OC(N[C@@H](CCO)c2ccccc2)=NS(=O)(=O)C1Cc1ccccc1 (stereo partly drawn) [Example 2, (S)-3-(5-Benzyl-6,6-dimethyl-4,4-dioxo-5,6-dihydro-4H-4lambda6-[1,4,3]oxathiazin-2-ylamino)-3-phenyl-propan-1-ol]
3 | 4 | C[C@H](NC1=NS(=O)(=O)C(C)(Cc2ccc(Br)cc2)C(C)(C)O1)c1ccccc1F (stereo partly drawn) [Example 3, [5-(4-Bromobenzyl)-5,6,6-trimethyl-4,4-dioxo-5,6-dihydro-4H-4lambda6-[1,4,3]oxathiazin-2-yl]-[(S)-1-(2-fluorophenyl)-ethyl]-amine]
4 | 3 | CC1(C)OC(N[C@@H](CCO)c2ccccc2F)=NS(=O)(=O)C1(C)Cc1ccc(Br)cc1 (stereo partly drawn) [Example 4, (S)-3-[5-(4-Bromobenzyl)-5,6,6-trimethyl-4,4-dioxo-5,6-dihydro-4H-4lambda6-[1,4,3]oxathiazin-2-ylamino]-3-(2-fluorophenyl)-propan-1-ol]
5 | 5 | C[C@H](NC1=NS(=O)(=O)C(C)(Cc2ccccc2)C(C)(C)O1)c1ccccc1F (stereo partly drawn) [Example 5, (5-Benzyl-5,6,6-trimethyl-4,4-dioxo-5,6-dihydro-4H-4lambda6-[1,4,3]oxathiazin-2-yl)-[(S)-1-(2-fluorophenyl)-ethyl]-amine]
6 | 6 | CC1(C)OC(N[C@@H](CCO)c2ccccc2F)=NS(=O)(=O)C1(C)Cc1ccc(-c2ccccn2)cc1 (stereo partly drawn) [Example 6, (S)-3-(2-Fluorophenyl)-3-[5,6,6-trimethyl-4,4-dioxo-5-(4-pyridin-2-yl-benzyl)-5,6-dihydro-4H-4lambda6-[1,4,3]oxathiazin-2-ylamino]-propan-1-ol]
7 | 12 | CC1(C)OC(N[C@@H](CCO)c2ccccc2F)=NS(=O)(=O)C1(C)Cc1ccc(-c2ccc(C(F)(F)F)cn2)cc1 (stereo partly drawn) [Example 7, (S)-3-(2-Fluorophenyl)-3-{5,6,6-trimethyl-4,4-dioxo-5-[4-(5-trifluoromethyl-pyridin-2-yl)-benzyl]-5,6-dihydro-4H-4lambda6-[1,4,3]oxathiazin-2-ylamino}-propan-1-ol]
8 | 7 | CC1(C)OC(N[C@@H](CCO)c2ccccc2F)=NS(=O)(=O)C1Cc1ccc(-c2ccc(C(F)(F)F)cn2)cc1 (stereo partly drawn) [Example 8, (S)-3-{6,6-Dimethyl-4,4-dioxo-5-[4-(5-trifluoromethyl-pyridin-2-yl)-benzyl]-5,6-dihydro-4H-4lambda6-[1,4,3]oxathiazin-2-ylamino}-3-(2-fluoro-phenyl)-propan-1-ol]
9 | 5 | CC1(C)OC(N[C@@H](CCO)c2ccccc2F)=NS(=O)(=O)C1Cc1cccc(-c2ccccc2)c1 (stereo partly drawn) [Example 9, (S)-3-(5-Biphenyl-3-ylmethyl-6,6-dimethyl-4,4-dioxo-5,6-dihydro-4H-4lambda6-[1,4,3]oxathiazin-2-ylamino)-3-(2-fluoro-phenyl)-propan-1-ol]
10 | 4 | CC1(C)OC(N[C@@H](CCO)c2ccccc2F)=NS(=O)(=O)C1Cc1ccc(-c2ccccc2)cc1 (stereo partly drawn) [Example 10, (S)-3-(5-Biphenyl-4-ylmethyl-6,6-dimethyl-4,4-dioxo-5,6-dihydro-4H-4lambda6-[1,4,3]oxathiazin-2-ylamino)-3-(2-fluoro-phenyl)-propan-1-ol]
11 | 8 | CC1(C)OC(N[C@@H](CCO)c2ccccc2Cl)=NS(=O)(=O)C1Cc1ccccc1 (stereo partly drawn) [Example 11, (S)-3-(5-Benzyl-6,6-dimethyl-4,4-dioxo-5,6-dihydro-4H-4lambda6-[1,4,3]oxathiazin-2-ylamino)-3-(2-chlorophenyl)-propan-1-ol]
12 | 4 | CC1(C)OC(N[C@@H](CCO)c2ccccc2F)=NS(=O)(=O)C1Cc1ccccc1 (stereo partly drawn) [Example 12, (S)-3-(5-Benzyl-6,6-dimethyl-4,4-dioxo-5,6-dihydro-4H-4lambda6-[1,4,3]oxathiazin-2-ylamino)-3-(2-fluorophenyl)-propan-1-ol]
13 | 6 | CC1(C)OC(N[C@@H](CCO)c2cccc(F)c2Cl)=NS(=O)(=O)C1Cc1ccccc1 (stereo partly drawn) [Example 13, (S)-3-(5-Benzyl-6,6-dimethyl-4,4-dioxo-5,6-dihydro-4H-4lambda6-[1,4,3]oxathiazin-2-ylamino)-3-(2-chloro-3-fluorophenyl)-propan-1-ol]
14 | 4 | CC1(C)OC(N[C@@H](CCO)c2cc(Cl)ccc2F)=NS(=O)(=O)C1Cc1ccccc1 (stereo partly drawn) [Example 14, (S)-3-(5-Benzyl-6,6-dimethyl-4,4-dioxo-5,6-dihydro-4H-4lambda6-[1,4,3]oxathiazin-2-ylamino)-3-(5-chloro-2-fluorophenyl)-propan-1-ol]
15 | 10 | CC1(C)OC(N[C@@H](CCO)c2ccc(Cl)cc2)=NS(=O)(=O)C1Cc1ccccc1 (stereo partly drawn) [Example 15, (S)-3-(5-Benzyl-6,6-dimethyl-4,4-dioxo-5,6-dihydro-4H-4lambda6-[1,4,3]oxathiazin-2-ylamino)-3-(4-chlorophenyl)-propan-1-ol]
16 | 6 | CC1(C)OC(N[C@@H](CCO)c2cccc(Cl)c2)=NS(=O)(=O)C1Cc1ccccc1 (stereo partly drawn) [Example 16, (S)-3-(5-Benzyl-6,6-dimethyl-4,4-dioxo-5,6-dihydro-4H-4lambda6-[1,4,3]oxathiazin-2-ylamino)-3-(3-chlorophenyl)-propan-1-ol]
17 | 4 | CC1(C)OC(N[C@@H](CCO)c2cc(F)ccc2F)=NS(=O)(=O)C1Cc1ccccc1 (stereo partly drawn) [Example 17, (S)-3-(5-Benzyl-6,6-dimethyl-4,4-dioxo-5,6-dihydro-4H-4lambda6-[1,4,3]oxathiazin-2-ylamino)-3-(2,5-difluorophenyl)-propan-1-ol]
18 | 5 | CC1(C)OC(N[C@@H](CCO)c2ccc(F)cc2F)=NS(=O)(=O)C1Cc1ccccc1 (stereo partly drawn) [Example 18, (S)-3-(5-Benzyl-6,6-dimethyl-4,4-dioxo-5,6-dihydro-4H-4lambda6-[1,4,3]oxathiazin-2-ylamino)-3-(2,4-difluorophenyl)-propan-1-ol]
19 | 4 | Cc1ccc(F)cc1[C@H](CCO)NC1=NS(=O)(=O)C(Cc2ccccc2)C(C)(C)O1 (stereo partly drawn) [Example 19, (S)-3-(5-Benzyl-6,6-dimethyl-4,4-dioxo-5,6-dihydro-4H-4lambda6-[1,4,3]oxathiazin-2-ylamino)-3-(5-fluoro-2-methyl-phenyl)-propan-1-ol]
20 | 5 | CC1(C)OC(NC23CCC(F)(CC2)CC3)=NS(=O)(=O)C1Cc1ccccc1 (stereo not shown) [Example 20, (5-Benzyl-6,6-dimethyl-4,4-dioxo-5,6-dihydro-4H-4lambda6-[1,4,3]oxathiazin-2-yl)-(4-fluoro-bicyclo[2.2.2]oct-1-yl)-amine]
21 | 5 | CC1(C)OC(N[C@@H](CCO)c2ccccc2F)=NS(=O)(=O)C1Cc1cccc2ccccc12 (stereo partly drawn) [Example 21, (S)-3-(6,6-Dimethyl-5-naphthalen-1-ylmethyl-4,4-dioxo-5,6-dihydro-4H-4lambda6-[1,4,3]oxathiazin-2-ylamino)-3-(2-fluorophenyl)-propan-1-ol]
22 | 7 | CC1(C)OC(N[C@@H](CCO)c2ccccc2F)=NS(=O)(=O)C1Cc1ccc(C2CCNCC2)cc1 (stereo partly drawn) [Example 22, (S)-3-[6,6-Dimethyl-4,4-dioxo-5-(4-piperidin-4-yl-benzyl)-5,6-dihydro-4H-4lambda6-[1,4,3]oxathiazin-2-ylamino]-3-(2-fluorophenyl)-propan-1-ol]
23 | 17 | CC1(C)OC(N[C@@H](CCO)c2ccccc2F)=NS(=O)(=O)C1Cc1ccc(C2=CCNCC2)cc1 (stereo partly drawn) [Example 23, (S)-3-{6,6-Dimethyl-4,4-dioxo-5-[4-(1,2,3,6-tetrahydro-pyridin-4-yl)-benzyl]-5,6-dihydro-4H-4lambda6-[1,4,3]oxathiazin-2-ylamino}-3-(2-fluoro-phenyl)-propan-1-ol]
24 | 20 | CN1CCC(c2ccc(CC3C(C)(C)OC(N[C@@H](CCO)c4ccccc4F)=NS3(=O)=O)cc2)CC1 (stereo partly shown) [Example 25]
25 | 16 | CC1(C)OC(N[C@@H](CCO)c2ccccc2F)=NS(=O)(=O)C1Cc1ccc(C2CCN(CCCO)CC2)cc1 (stereo partly shown) [Example 26]
26 | 5 | CC1(C)OC(N[C@@H](CCO)c2ccccc2F)=NS(=O)(=O)C1Cc1ccc(C2CCN(CCO)CC2)cc1 (stereo partly shown) [Example 27]
27 | 9 | CC1(C)OC(N[C@@H](CCO)c2ccccc2F)=NS(=O)(=O)C1Cc1ccc(C2CCN(C3CC3)CC2)cc1 (stereo partly drawn) [Example 28, (S)-3-{5-[4-(1-Cyclopropyl-piperidin-4-yl)-benzyl]-6,6-dimethyl-4,4-dioxo-5,6-dihydro-4H-4lambda6-[1,4,3]oxathiazin-2-ylamino}-3-(2-fluorophenyl)-propan-1-ol]
28 | 7 | CC1(C)OC(N[C@@H](CCO)c2ccccc2F)=NS(=O)(=O)C1Cc1ccc(C2CCN(CCC(F)(F)F)CC2)cc1 (stereo partly drawn) [Example 29, (S)-3-(6,6-Dimethyl-4,4-dioxo-5-{4-[1-(3,3,3-trifluoropropyl)-piperidin-4-yl]-benzyl}-5,6-dihydro-4H-4lambda6-[1,4,3]oxathiazin-2-ylamino)-3-(2-fluorophenyl)-propan-1-ol]
